Legend:
Details in all cases: 72 h
[1] = tested on: HepG2; experiment: drug sensitivity score (DSS) for viability; higher = more toxic; extreme values may be limits of the assay
[2] = tested on: Caco-2; experiment: as above
[3] = tested on: U2OS; experiment: as above
[4] = tested on: Calu-3; experiment: as above
[5] = tested on: Vero E6; experiment: as above
[6] = tested on: HepG2; experiment: cell viability relative to DMSO; higher = less toxic
[7] = tested on: Caco-2; experiment: as above
[8] = tested on: U2OS; experiment: as above
[9] = tested on: Calu-3; experiment: as above
[10] = tested on: Vero E6; experiment: as above
[11] = tested on: HepG2; experiment: relative viability EC50 (midpoint between 100% and the lowest measured viability); higher = less toxic
[12] = tested on: Caco-2; experiment: as above
[13] = tested on: U2OS; experiment: as above
[14] = tested on: Calu-3; experiment: as above
[15] = tested on: Vero E6; experiment: as above

| SMILES | drug sensitivity score [1] | drug sensitivity score [2] | drug sensitivity score [3] | drug sensitivity score [4] | drug sensitivity score [5] | cell viability ([6]; 1 nM) [%] | cell viability ([6]; 10 nM) [%] | cell viability ([6]; 100 nM) [%] | cell viability ([6]; 1000 nM) [%] | cell viability ([6]; 10000 nM) [%] | cell viability ([7]; 1 nM) [%] | cell viability ([7]; 10 nM) [%] | cell viability ([7]; 100 nM) [%] | cell viability ([7]; 1000 nM) [%] | cell viability ([7]; 10000 nM) [%] | cell viability ([8]; 1 nM) [%] | cell viability ([8]; 10 nM) [%] | cell viability ([8]; 100 nM) [%] | cell viability ([8]; 1000 nM) [%] | cell viability ([8]; 10000 nM) [%] | cell viability ([9]; 1 nM) [%] | cell viability ([9]; 10 nM) [%] | cell viability ([9]; 100 nM) [%] | cell viability ([9]; 1000 nM) [%] | cell viability ([9]; 10000 nM) [%] | cell viability ([10]; 1 nM) [%] | cell viability ([10]; 10 nM) [%] | cell viability ([10]; 100 nM) [%] | cell viability ([10]; 1000 nM) [%] | cell viability ([10]; 10000 nM) [%] | relative viability EC50 [11] [µM] | relative viability EC50 [12] [µM] | relative viability EC50 [13] [µM] | relative viability EC50 [14] [µM] | relative viability EC50 [15] [µM] |
| --- | --- | --- | --- | --- | --- | --- | --- | --- | --- | --- | --- | --- | --- | --- | --- | --- | --- | --- | --- | --- | --- | --- | --- | --- | --- | --- | --- | --- | --- | --- | --- | --- | --- | --- | --- |
| Oc1ccc(Cl)c2cccnc12 [cloxyquin] | 0.3 | 0 | 0 | 0 | 0 | 102 | 98.9 | 116 | 93.4 | 88.2 | 96.1 | 98.1 | 104 | 96.9 | 95 | 94.4 | 99.3 | 99.4 | 99.8 | 97.4 | 87.9 | 100 | 96 | 106 | 105 | 99.7 | 105 | 99.9 | 101 | 97.7 | > 10 | > 10 | > 10 | > 10 | > 10 |
| NS(=O)(=O)c1cc2c(cc1Cl)NC(C1CC3C=CC1C3)NS2(=O)=O (stereo not given) [cyclothiazide] | 0 | 0 | 0 | 0 | 0 | 90.8 | 104 | 88.9 | 99.9 | 93.8 | 92.4 | 89 | 103 | 81.8 | 91.2 | 93.7 | 95.2 | 99.9 | 94.3 | 97.7 | 101 | 96.7 | 95.3 | 112 | 100 | 94.4 | 102 | 91.2 | 92.5 | 105 | > 10 | > 10 | > 10 | > 10 | > 10 |
| O=c1ccc2ccc(O)c(O)c2o1 [daphnetin] | 3.3 | 0 | 0 | 0 | 0 | 102 | 105 | 87.3 | 87.5 | 82.1 | 105 | 105 | 104 | 107 | 90.5 | 111 | 108 | 101 | 102 | 99.4 | 101 | 111 | 102 | 99.9 | 110 | 106 | 100 | 98.3 | 93 | 101 | > 10 | > 10 | > 10 | > 10 | > 10 |
| C[C@]1(COc2ccc(N3CCC(Oc4ccc(OC(F)(F)F)cc4)CC3)cc2)Cn2cc([N+](=O)[O-])nc2O1 [delamanid] | 0 | 0 | 0 | 0 | 0 | 96.5 | 97.8 | 92.6 | 99.5 | 104 | 103 | 96.9 | 103 | 90.5 | 94.3 | 105 | 98.2 | 103 | 98.3 | 102 | 93 | 98 | 103 | 91.9 | 102 | 104 | 102 | 101 | 102 | 99.8 | > 10 | > 10 | > 10 | > 10 | > 10 |
| CC(C)=CCC/C(C)=C/CC/C(C)=C/CC[C@]1(C)CCc2cc(O)cc(C)c2O1 [delta-tocotrienol] | 0 | 0 | 0 | 0 | 0 | 90.7 | 85.3 | 98.6 | 91 | 97.1 | 99.3 | 99.1 | 81.7 | 97.1 | 105 | 97.5 | 99.8 | 98.2 | 102 | 97.9 | 94.6 | 102 | 93.2 | 101 | 113 | 107 | 93.1 | 104 | 96.9 | 108 | > 10 | > 10 | > 10 | > 10 | > 10 |
| CC(=O)OCC(=O)[C@H]1CC[C@H]2[C@@H]3CCC4=CC(=O)CC[C@]4(C)[C@H]3CC[C@]12C [deoxycorticosterone-acetate] | 0 | 0 | 0 | 0 | 0 | 107 | 110 | 95.9 | 91.5 | 107 | 85.4 | 114 | 100 | 122 | 101 | 96.8 | 100 | 103 | 102 | 99.2 | 98.4 | 99.8 | 100 | 91.9 | 107 | 100 | 99.8 | 96.2 | 98.7 | 91.7 | > 10 | > 10 | > 10 | > 10 | > 10 |
| CN(C)CCCSC(=N)N [dimaprit] | 0 | 0 | 0 | 0 | 0 | 99 | 106 | 99.1 | 104 | 93.2 | 99 | 102 | 93.9 | 96.3 | 97.4 | 98.5 | 103 | 95.1 | 96.2 | 96.8 | 109 | 103 | 109 | 99.1 | 96.7 | 99.9 | 98.8 | 103 | 100 | 96.2 | > 10 | > 10 | > 10 | > 10 | > 10 |
| C[C@@H](O)[C@H]1C(=O)N2C(C(=O)O)=C(S[C@@H]3CN[C@H](CNS(N)(=O)=O)C3)[C@H](C)[C@H]12 [doripenem] | 0 | 0 | 0 | 0 | 0 | 104 | 106 | 91 | 99.9 | 96.8 | 103 | 98 | 95.2 | 92.3 | 107 | 95.6 | 94.6 | 95.1 | 95.2 | 94.7 | 93.1 | 85.6 | 84 | 95.1 | 94.4 | 104 | 104 | 97.3 | 99.4 | 97.3 | > 10 | > 10 | > 10 | > 10 | > 10 |
| CCN(CC)CCOC(=O)C(c1ccccc1)C1CCCCC1 (stereo not given) [drofenine] | 2.6 | 0 | 0 | 0 | 0.1 | 93.7 | 87.5 | 86.6 | 86.9 | 87.8 | 102 | 96 | 99.3 | 88.2 | 111 | 102 | 99.1 | 100 | 98.2 | 102 | 107 | 110 | 109 | 97.3 | 98 | 103 | 110 | 100 | 107 | 85.8 | > 10 | > 10 | > 10 | > 10 | > 10 |
| CCCCOc1ccc(C(=O)CCN2CCCCC2)cc1 [dyclonine] | 0 | 1.1 | 0 | 0 | 0 | 96.6 | 93.3 | 106 | 98 | 94.7 | 102 | 108 | 101 | 85.7 | 94 | 99.9 | 103 | 94.3 | 100 | 95.5 | 96 | 109 | 99.2 | 109 | 102 | 94.7 | 102 | 99 | 98.6 | 97.3 | > 10 | > 10 | > 10 | > 10 | > 10 |
| Nc1nc(=O)n([C@@H]2CS[C@H](CO)O2)cc1F [emtricitabine] | 0.4 | 0 | 0 | 0 | 0 | 104 | 105 | 102 | 97.5 | 85.5 | 107 | 108 | 108 | 98.8 | 109 | 97.2 | 104 | 92.1 | 98 | 98.9 | 104 | 88.8 | 105 | 96.2 | 110 | 102 | 102 | 99.5 | 104 | 100 | > 10 | > 10 | > 10 | > 10 | > 10 |
| OC[C@@H](O)[C@@H](O)CO [erythritol] | 0 | 0 | 0 | 0 | 0 | 108 | 116 | 100 | 97.1 | 98.9 | 94.1 | 101 | 97.9 | 91 | 100 | 94.8 | 98.1 | 97.8 | 99.6 | 97.7 | 102 | 97.9 | 112 | 97 | 98.7 | 105 | 102 | 101 | 102 | 98.1 | > 10 | > 10 | > 10 | > 10 | > 10 |
| O=S(=O)(O)c1cc(O)ccc1O [etamsylate] | 0 | 0 | 0 | 0 | 0 | 107 | 105 | 110 | 108 | 97.8 | 89.7 | 100 | 91 | 98.8 | 92.4 | 92.5 | 98.3 | 95.7 | 99 | 104 | 95.6 | 100 | 106 | 95 | 95.3 | 96.2 | 94.5 | 104 | 94.5 | 106 | > 10 | > 10 | > 10 | > 10 | > 10 |
| CC(C)(Oc1ccc(Cl)cc1)C(=O)OCCOC(=O)c1cccnc1 [etofibrate] | 0 | 0 | 0 | 0 | 0 | 92.7 | 106 | 96 | 99.1 | 111 | 95.3 | 88.1 | 94 | 92.1 | 105 | 101 | 94.1 | 102 | 94.9 | 96.6 | 86.8 | 89.6 | 99.1 | 111 | 101 | 93.5 | 99.7 | 91.7 | 93.9 | 98.5 | > 10 | > 10 | > 10 | > 10 | > 10 |

Source: the supplement of paper PMC13380429
